Experimental data published in publication PMC12668310, “High‐Throughput Synthesis and Screening of a Cyanimide Library Identifies Selective Inhibitors of ISG15‐Specific Protease mUSP18” (Angewandte Chemie (International Ed. in English), 2025).

Columns and labels:
mUSP18 [1] = molecular target: T1, mUSP18 (Mus musculus, UniProt Q9WTV6); experiment: IC50 determination, fluorogenic ISG15CT-Rho-morpholine activity assay; format: biochemical, murine
T1 construct: (46-368); His-tag (N); made in house
T1 sequence (Q9WTV6 46-368): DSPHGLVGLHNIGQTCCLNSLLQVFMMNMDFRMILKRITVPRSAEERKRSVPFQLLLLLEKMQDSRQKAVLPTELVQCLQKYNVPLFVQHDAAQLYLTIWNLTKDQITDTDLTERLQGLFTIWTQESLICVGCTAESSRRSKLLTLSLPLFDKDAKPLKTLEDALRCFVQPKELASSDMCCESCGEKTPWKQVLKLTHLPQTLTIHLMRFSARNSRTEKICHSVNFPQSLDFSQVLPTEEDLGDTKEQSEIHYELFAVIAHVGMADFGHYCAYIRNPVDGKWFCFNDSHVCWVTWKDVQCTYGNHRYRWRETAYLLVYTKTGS

mUSP18 [2] = molecular target: T1, mUSP18; experiment: High-throughput screening, ISG15ct-RhoMP, single dose 1.25 µM; format: biochemical, murine; settings: crude in-plate synthesized compound, 1.25 µM assuming full conversion; read-out: %inhibition mUSP18
12 Ub(‐like) proteases = experiment: High-throughput screening, whole panel of twelve enzymes; format: biochemical; settings: crude mixture, 1.25 µM; enzymes other than mUSP18
Description: Since the in‐plate synthesis was conducted in 1536‐well Echo plates, the compounds could readily be transferred from these plates into 1536‐well assay plates using acoustic liquid dispensing (Figure 2a) and subjected to HTS. We screened the whole 7536 compound library against a panel of twelve enzymes, including three DUBs from the UCH family, two DUBs from the OTU family, five DUBs from the USP family, plus ISG15 protease USP18, and SUMO protease SENP1. Each compound was tested at a single dose of 1.25 µM, assuming full conversion (10 mM in DMSO of the formed products) during the in‐plate synthesis, using the fluorogenic assay described above. […] The compounds are sorted by the amine building blocks (BB1‐16), and within each BB, sorted by carboxylic acid (CA1‐471), thereby providing a comprehensive and systematic overview of the overall inhibition by each BB and CA combination. Some interesting patterns can be obtained from this map. […] Indeed, BB10 is the privileged scaffold for UCHL1 as it originates from UCHL1 inhibitor 5 (Figure 1). […]
(§1) The percentage inhibition was calculated for each well using the […]
(§2) Where FIx is the fluorescence intensity of each well, FIpos is the average fluorescence intensity of the positive (NEM) control wells, and FIneg is the average fluorescence intensity of the negative (DMSO) control wells.

UCHL1 = molecular target: T2, UCHL1 (Homo sapiens, UniProt P09936); experiment: IC50 determination, fluorogenic Ub-Rho-morpholine activity assay; format: biochemical; settings: after 30 min incubation; purified compound
T2 construct: (1-223); made in house
T2 sequence (P09936 1-223): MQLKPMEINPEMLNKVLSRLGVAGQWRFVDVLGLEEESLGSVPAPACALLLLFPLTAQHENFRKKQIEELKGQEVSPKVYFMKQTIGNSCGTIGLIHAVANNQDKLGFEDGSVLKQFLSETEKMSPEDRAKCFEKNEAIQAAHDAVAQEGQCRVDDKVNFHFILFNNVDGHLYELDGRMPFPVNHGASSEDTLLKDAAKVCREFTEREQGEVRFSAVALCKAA

UCHL3 = molecular target: T3, UCHL3 (Homo sapiens, UniProt P15374); experiment: as above; format: biochemical; settings: after 30 min incubation; purified compound
T3 construct: (1-230); made in house
T3 sequence (P15374 1-230): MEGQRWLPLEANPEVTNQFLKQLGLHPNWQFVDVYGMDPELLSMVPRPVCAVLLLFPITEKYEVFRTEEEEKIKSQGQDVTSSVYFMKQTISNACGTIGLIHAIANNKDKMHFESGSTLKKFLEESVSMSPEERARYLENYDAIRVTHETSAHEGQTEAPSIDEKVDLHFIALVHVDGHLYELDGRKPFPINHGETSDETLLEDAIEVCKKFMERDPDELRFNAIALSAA

USP7 = molecular target: T4, USP7 (Homo sapiens, UniProt Q93009); experiment: as above; format: biochemical; settings: after 30 min incubation; purified compound
T4 construct: (1-1102); GST (cleaved yes); made in house
T4 sequence (Q93009 whole entry): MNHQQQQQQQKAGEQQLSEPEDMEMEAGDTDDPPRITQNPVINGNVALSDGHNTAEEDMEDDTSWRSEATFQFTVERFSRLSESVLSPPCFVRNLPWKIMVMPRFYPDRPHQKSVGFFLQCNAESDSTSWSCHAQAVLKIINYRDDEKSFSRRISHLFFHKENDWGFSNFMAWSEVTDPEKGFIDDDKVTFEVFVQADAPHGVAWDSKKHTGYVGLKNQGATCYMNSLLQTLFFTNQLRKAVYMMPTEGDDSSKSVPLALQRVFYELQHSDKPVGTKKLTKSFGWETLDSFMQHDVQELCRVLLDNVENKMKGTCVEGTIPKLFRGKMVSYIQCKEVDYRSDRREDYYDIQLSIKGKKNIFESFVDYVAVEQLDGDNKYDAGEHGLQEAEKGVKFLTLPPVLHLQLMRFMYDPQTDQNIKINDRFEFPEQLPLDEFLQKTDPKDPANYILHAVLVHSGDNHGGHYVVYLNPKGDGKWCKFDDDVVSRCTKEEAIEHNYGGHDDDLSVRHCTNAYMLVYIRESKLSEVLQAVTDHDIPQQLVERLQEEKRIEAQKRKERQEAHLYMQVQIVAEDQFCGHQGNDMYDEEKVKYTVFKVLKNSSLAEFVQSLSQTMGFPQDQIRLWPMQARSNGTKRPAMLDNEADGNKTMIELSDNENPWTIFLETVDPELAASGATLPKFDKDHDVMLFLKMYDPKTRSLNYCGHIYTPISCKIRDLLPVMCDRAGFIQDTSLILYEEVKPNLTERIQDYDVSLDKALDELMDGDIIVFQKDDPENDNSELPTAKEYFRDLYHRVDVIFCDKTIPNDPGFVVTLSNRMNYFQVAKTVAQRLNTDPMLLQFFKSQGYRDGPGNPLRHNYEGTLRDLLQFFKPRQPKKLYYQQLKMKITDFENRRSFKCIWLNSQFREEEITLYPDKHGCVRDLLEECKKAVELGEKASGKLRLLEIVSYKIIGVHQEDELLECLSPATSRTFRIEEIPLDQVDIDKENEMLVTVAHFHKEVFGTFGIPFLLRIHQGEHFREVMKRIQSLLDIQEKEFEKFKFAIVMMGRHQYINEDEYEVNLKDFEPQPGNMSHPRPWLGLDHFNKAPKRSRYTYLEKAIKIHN

USP32 = molecular target: T5, USP32 (Homo sapiens, UniProt Q8NFA0); experiment: as above; format: biochemical; settings: after 30 min incubation; purified compound
T5 construct: (1-1604); His-tag (N); made in house
T5 sequence (Q8NFA0 whole entry): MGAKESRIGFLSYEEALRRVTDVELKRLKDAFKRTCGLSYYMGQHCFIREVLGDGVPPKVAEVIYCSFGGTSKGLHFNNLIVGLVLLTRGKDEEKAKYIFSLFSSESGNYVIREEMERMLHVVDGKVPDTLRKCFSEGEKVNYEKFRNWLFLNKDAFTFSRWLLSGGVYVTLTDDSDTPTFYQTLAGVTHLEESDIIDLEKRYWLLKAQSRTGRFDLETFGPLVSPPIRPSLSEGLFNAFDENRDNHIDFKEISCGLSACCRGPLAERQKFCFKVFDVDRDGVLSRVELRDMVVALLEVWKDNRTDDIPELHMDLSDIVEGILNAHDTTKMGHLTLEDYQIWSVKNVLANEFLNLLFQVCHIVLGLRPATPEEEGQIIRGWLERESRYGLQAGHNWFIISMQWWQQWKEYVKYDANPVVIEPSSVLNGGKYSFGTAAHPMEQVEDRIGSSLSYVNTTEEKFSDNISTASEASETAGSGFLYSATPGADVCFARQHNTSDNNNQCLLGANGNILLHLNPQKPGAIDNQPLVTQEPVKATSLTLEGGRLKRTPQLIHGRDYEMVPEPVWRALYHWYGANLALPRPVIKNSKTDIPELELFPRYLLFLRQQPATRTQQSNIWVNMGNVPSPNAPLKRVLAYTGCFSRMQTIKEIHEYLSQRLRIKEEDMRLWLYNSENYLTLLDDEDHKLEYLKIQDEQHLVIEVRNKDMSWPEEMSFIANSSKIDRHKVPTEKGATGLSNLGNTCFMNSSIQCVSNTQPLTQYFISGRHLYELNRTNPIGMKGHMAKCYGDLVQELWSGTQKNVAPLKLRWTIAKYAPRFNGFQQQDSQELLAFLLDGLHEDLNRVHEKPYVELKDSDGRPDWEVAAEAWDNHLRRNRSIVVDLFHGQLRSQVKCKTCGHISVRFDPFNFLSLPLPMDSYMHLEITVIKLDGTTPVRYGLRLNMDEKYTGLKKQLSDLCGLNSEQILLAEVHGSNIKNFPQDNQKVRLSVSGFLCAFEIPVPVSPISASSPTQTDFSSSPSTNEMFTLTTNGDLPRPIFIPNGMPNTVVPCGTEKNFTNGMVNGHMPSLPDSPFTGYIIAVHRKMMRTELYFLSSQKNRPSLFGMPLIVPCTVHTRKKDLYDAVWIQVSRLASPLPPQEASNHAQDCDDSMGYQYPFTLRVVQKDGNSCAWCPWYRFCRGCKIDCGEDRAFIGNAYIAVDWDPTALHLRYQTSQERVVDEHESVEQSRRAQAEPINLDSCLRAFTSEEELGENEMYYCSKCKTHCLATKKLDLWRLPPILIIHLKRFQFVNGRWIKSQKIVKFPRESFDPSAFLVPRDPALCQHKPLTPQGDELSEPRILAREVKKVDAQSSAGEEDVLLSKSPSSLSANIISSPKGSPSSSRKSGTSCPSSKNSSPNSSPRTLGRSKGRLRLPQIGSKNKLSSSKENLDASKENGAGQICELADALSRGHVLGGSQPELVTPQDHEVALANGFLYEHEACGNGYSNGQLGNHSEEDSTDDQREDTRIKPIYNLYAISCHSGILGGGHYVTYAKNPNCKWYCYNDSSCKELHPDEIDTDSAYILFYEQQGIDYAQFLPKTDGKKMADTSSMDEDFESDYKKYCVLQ

OTUB2 = molecular target: T6, OTUB2 (Homo sapiens, UniProt Q96DC9); experiment: biochemical
T6 sequence (Q96DC9 1-234): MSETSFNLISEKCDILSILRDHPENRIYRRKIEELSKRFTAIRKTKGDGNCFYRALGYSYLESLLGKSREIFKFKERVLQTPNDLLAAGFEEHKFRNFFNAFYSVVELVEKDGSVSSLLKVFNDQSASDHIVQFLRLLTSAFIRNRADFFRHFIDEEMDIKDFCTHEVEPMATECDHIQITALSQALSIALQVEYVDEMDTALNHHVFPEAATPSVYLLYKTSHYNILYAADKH
Description: (§3) This panel included five proteases from the USP family, two from the UCH family, and one OTU. The IC50 values were determined in a well‐established biochemical activity assay using the fluorogenic substrate Ub‐Rho‐morpholine.^[ [33] ^]
(§4) Enzymes were pre-incubated with a concentration series of the compounds for 30 minutes at
(§5) room temperature, before addition of the substrate and direct read-out by fluorescence
(§6) intensity. Data is presented as mean ± SD, n=3.
(§7) USP16 Full length N-terminal His-tag Q9Y5T5 In-house, [Mons, 2 nM
IC50 and kinact/KI determination
(§8) The assays were performed at room temperature in “nonbinding surface flat bottom low flange”
(§9) TrisꞏHCl, 100 mM NaCl, pH 7.6, 2.0 mM cysteine, 1 mg/mL 3-[(3-cholamidopropyl)-
(§10) dimethylammonio]propanesulfonic acid (CHAPS), and 0.5 mg/mL γ-globulins from bovine
(§11) blood (BGG). […] The compounds were dissolved in 10
(§12) mM DMSO stocks, and appropriate volumes were transferred to the empty plates using a
(§13) Labcyte Echo550 acoustic dispenser. A DMSO back-fill was performed to obtain equal volumes of DMSO (400 μL) in each well. N-ethylmaleimide (NEM, 10 mM) was used a positive
steps were performed on a Biotek MultiflowFX liquid dispenser. […]
(§14) RhoMP, 10 µM for Z-FR-AMC), and the increase in fluorescence over time was recorded using
excitation 360 nm, emission 450 nm for AMC). The initial enzyme velocities were calculated […]

USP16 = USP16 (Homo sapiens, UniProt Q9Y5T5); experiment: biochemical
Sequence of USP16 (Q9Y5T5 22-823): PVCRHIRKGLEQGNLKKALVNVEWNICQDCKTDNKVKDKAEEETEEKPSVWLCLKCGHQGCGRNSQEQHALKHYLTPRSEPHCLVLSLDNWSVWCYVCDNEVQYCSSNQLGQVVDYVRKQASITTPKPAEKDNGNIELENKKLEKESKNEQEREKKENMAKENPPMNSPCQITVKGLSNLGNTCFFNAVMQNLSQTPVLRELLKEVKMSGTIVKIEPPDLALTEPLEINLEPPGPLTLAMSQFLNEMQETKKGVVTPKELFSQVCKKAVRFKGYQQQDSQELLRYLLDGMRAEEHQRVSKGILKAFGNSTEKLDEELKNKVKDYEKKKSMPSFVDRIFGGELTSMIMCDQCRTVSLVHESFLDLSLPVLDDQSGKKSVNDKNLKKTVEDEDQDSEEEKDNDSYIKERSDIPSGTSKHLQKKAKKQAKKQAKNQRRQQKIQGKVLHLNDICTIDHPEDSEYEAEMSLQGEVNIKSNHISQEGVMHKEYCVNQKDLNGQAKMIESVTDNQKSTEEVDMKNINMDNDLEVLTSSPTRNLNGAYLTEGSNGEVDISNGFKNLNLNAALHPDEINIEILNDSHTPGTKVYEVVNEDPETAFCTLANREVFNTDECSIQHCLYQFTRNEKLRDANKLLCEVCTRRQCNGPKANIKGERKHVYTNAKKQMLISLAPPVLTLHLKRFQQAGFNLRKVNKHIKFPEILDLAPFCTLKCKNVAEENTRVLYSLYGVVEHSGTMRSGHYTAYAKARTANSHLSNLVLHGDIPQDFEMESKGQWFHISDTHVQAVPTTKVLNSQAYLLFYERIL
Description: as §3, §4, §5, §6, §7
IC50 and kinact/KI determination
as §8, §9, §10, §11, §12, §13
(§15) steps were performed on a Biotek MultiflowFX liquid dispenser. A 10 μL portion of buffer was added and the plate was vigorously shaken for 20s. Next, 5 μL of recombinant enzyme (4x final concentration) was added followed by incubation for 1h. A 5 μL portion of the substrate
(§16) (Ub-RhoMP[2] for all DUBs, ISG15ct-RhoMP (vide supra) for USP18 and Z-FR-AMC [Bachem,
as §14
(§17) excitation 360 nm, emission 450 nm for AMC). The initial enzyme velocities were calculated
(§18) from the slopes, normalized to the positive and negative controls, and plotted against the
(§19) inhibitor concentrations using the built-in equation “[inhibitor] vs response − variable slope
(§20) (four parameters), least-squares fit” with constraints “Bottom = 0” and “Top = 100” in GraphPad
(§21) Prism 7 software to obtain the IC50 values.
(§22) All data fitting and calculations were done using GraphPad Prism 7 software.

USP30 [3] = molecular target: T7, USP30 (Homo sapiens, UniProt Q70CQ3); experiment: biochemical
T7 sequence (Q70CQ3 57-517): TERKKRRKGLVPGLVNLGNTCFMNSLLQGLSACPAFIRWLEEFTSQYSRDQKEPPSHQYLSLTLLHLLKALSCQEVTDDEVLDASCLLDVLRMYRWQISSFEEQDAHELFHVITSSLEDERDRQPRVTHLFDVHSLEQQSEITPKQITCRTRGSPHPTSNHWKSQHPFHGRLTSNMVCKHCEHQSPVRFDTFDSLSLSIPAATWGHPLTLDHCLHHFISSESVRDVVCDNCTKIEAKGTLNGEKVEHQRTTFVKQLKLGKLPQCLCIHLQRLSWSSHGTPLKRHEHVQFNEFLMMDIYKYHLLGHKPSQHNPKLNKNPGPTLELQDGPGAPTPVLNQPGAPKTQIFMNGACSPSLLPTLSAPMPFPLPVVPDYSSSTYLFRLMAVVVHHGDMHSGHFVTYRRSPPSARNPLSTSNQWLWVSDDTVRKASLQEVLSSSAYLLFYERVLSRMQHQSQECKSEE
Description: This panel included five proteases from the USP family, two from the UCH family, and one OTU. The IC50 values were determined in a well‐established biochemical activity assay using the fluorogenic substrate Ub‐Rho‐morpholine.^[ [33] ^] For USP18, which is unreactive to Ub but specific for ISG15, we used the ISG15CT‐Rho‐morpholine (consisting of the C‐terminal domain of ISG15) substrate to monitor its activity (see Supporting Information for preparation of this substrate).
as §4, §5, §6
room temperature, followed by the addition of substrate and direct read-out by fluorescence
IC50 and kinact/KI determination
as §8, §9, §10, §11, §12, §13, §15, §16, §14, §17, §18, §19, §20, §21, §22

USP30 [4] = molecular target: T7, USP30; experiment: High-throughput screening, Ub-RhoMP, single dose 1.25 µM; format: biochemical; set-up: USP30 CD (57-517); purchased Ubiquigent 64-0057-050; settings: crude in-plate synthesized compound, 1.25 µM assuming full conversion
Description: Since the in‐plate synthesis was conducted in 1536‐well Echo plates, the compounds could readily be transferred from these plates into 1536‐well assay plates using acoustic liquid dispensing (Figure 2a) and subjected to HTS. We screened the whole 7536 compound library against a panel of twelve enzymes, including three DUBs from the UCH family, two DUBs from the OTU family, five DUBs from the USP family, plus ISG15 protease USP18, and SUMO protease SENP1. Each compound was tested at a single dose of 1.25 µM, assuming full conversion (10 mM in DMSO of the formed products) during the in‐plate synthesis, using the fluorogenic assay described above. […] The compounds are sorted by the amine building blocks (BB1‐16), and within each BB, sorted by carboxylic acid (CA1‐471), thereby providing a comprehensive and systematic overview of the overall inhibition by each BB and CA combination. Some interesting patterns can be obtained from this map. […] Indeed, BB10 is the privileged scaffold for UCHL1 as it originates from UCHL1 inhibitor 5 (Figure 1). […] On the other hand, OTUD1 and USP32 show a much higher hit rate, and this is even more pronounced for USP30 and ISG15 protease mUSP18, each showing many active compounds distributed over several BB's.
Purified recombinant enzymes used in this study
High-throughput screening
The screens were performed at room temperature in “flat bottom, non-treated, black […]
µM. The compounds (10 nL each) were transferred from the 1 mM daughter plates to the […]
Four wells containing DMSO
(10 nL) and four wells containing NEM (10 mM final concentration) were used in each plate […]
solution (1.33x final concentration) was added to each well, followed by incubation for 30 min.
Next, 2 µL of a substrate solution (4x final concentration) was added to each well (Ub-RhoMP[2]
After 1h or 2h incubation the
as §1, §2

| IC50 (mUSP18 [1]; pure (re-synthesized) compound, mean ± SD n = 3) [µM] | inhibition at 1.25 µM (mUSP18 [2]) [%] | inhibition of all other enzymes tested (12 Ub(‐like) proteases) | IC50 (UCHL1) [µM] | IC50 (UCHL3) [µM] | IC50 (USP7) [µM] | IC50 (mUSP18 [1]; after 30 min incubation, purified compound, ISG15CT-Rho-morpholine substrate) [µM] | IC50 (USP32) [µM] | IC50 (OTUB2) [µM] | IC50 (USP16) [µM] | IC50 (USP30 [3]) [µM] | %inhibition USP30 (USP30 [4]) [%] | SMILES |
| --- | --- | --- | --- | --- | --- | --- | --- | --- | --- | --- | --- | --- |
| 0.24 ± 0.0099 | 75 | negligible inhibition |  |  |  |  |  |  |  |  |  | N#CN1C[C@H]2C[C@H](NC(=O)CCC3CCCCC3)C[C@H]2C1 [BB07CA48] |
|  | ~90 |  | 54 | 229 | 42 | 0.079 | 0.53 | > 200 | 5.1 | 0.043 | ~90 | N#CN1CC[C@@H](NC(=O)c2cc(-c3cccc(Cl)c3)no2)C1 [Compound 1] |
